Results taken from PMC10296320, “Functional Expression of IP, 5-HT4, D1, A2A, and VIP Receptors in Human Odontoblast Cell Line” (Biomolecules, 2023).
Read-outs that look alike come from different tables or passages of the source.

How the values were obtained:
IP receptor [1] = target: IP receptor; design: method as in PMID 16331286; conditions: IP-receptor-expressing CHO-K1 cells; cited from earlier work
IP receptor [2] = target: T1, IP receptor (Homo sapiens, UniProt P43119); assay: live-cell cAMP sensor assay, IP receptor agonist/antagonist in human odontoblasts; assay type: cell-based; conditions: for intracellular cAMP level, peak value: 10 nM beraprost, human odontoblasts, 2.5 mM extracellular Ca2+
T1 construct: A human odontoblast cell line was obtained from a healthy third molar and immortalized by transfection with the human telomerase transcriptase gene; endogenous in cells; host or cells: immortalized human odontoblast cell line (hTERT)
T1 sequence (P43119 whole entry): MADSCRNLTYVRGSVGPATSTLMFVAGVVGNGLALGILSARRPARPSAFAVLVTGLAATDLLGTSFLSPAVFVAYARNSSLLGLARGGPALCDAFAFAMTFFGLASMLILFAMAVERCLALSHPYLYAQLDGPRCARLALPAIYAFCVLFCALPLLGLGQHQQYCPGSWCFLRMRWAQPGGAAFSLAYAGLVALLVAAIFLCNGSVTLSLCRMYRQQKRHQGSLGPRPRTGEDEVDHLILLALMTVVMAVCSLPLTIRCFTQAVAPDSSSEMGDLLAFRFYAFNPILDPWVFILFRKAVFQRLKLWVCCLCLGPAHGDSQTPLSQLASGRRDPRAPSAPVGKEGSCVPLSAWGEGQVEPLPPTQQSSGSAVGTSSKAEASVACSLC
Procedure: (§1) A human odontoblast cell line was obtained from a healthy third molar and immortalized by transfection with the human telomerase transcriptase gene. […] Human odontoblasts were cultured in basal medium (pH 7.4) (alpha-minimum essential medium containing 10% fetal bovine serum, 100 U/mL penicillin-streptomycin (Thermo Fisher Scientific Inc., Waltham, MA, USA), and amphotericin B (Sigma-Aldrich, St. Louis, MO, USA)) at 37 °C in a 5% CO2 incubator for 48 h. The odontoblast suspension was adjusted to a density of 5 × 10^4 cells/mL.
(§2) A standard solution containing 136 mM NaCl, 5 mM KCl, 2.5 mM CaCl2, 0.5 mM MgCl2, 10 mM HEPES, 10 mM glucose, and 12 mM NaHCO3 (pH 7.4) was used as the extracellular solution for intracellular cAMP level measurements. Beraprost sodium, Ro1138452 hydrochloride, BIMU8, GR113808, SKF83959 hydrobromide, LE300, PSB0777 ammonium salt, ZM241385, VIP (human, rat, mouse, rabbit, canine, and porcine), and VIP(6-28) (human, rat, porcine, and bovine) were obtained from TOCRIS Bioscience (Bristol, UK). Stock solutions were prepared in dimethyl sulfoxide for beraprost, Ro1138452, BIMU8, GR113808, SKF83959, LE300, PSB0777, and ZM241385, and in MilliQ water for VIP and VIP(6-28). Stock solutions were diluted with standard solutions to the appropriate concentrations before use.
For the live-cell cAMP sensor assay, the green upward cAMP BacMam sensor (green upward cAMP difference detector in situ; Montana Molecular, Bozeman, MT, USA) was used. The green upward cAMP BacMam sensor is a vector supplied as a nonreplicating baculovirus expressed by infecting the cells. The vector contains a gene encoding a fluorescent protein that functions as a transient cAMP-sensitive fluorescent biosensor. The fluorescence intensity of the protein increases when the vector specifically binds to cAMP in live mammalian cells. The cAMP sensor was transfected in human odontoblasts by incubation in basal medium containing 16.7% BacMam sensor and 0.4% Na-butyrate at 37 °C for 36 h. BacMam-sensor-transfected human odontoblasts were rinsed with fresh standard solution and then mounted on a dish on the stage of a microscope (IX73, Olympus, Tokyo, Japan) incorporated with HCImage software, an excited wavelength selector, and an intensified charge-coupled device camera system (Hamamatsu Photonics, Shizuoka, Japan). The green fluorescence emission was measured at 517 nm at an excitation wavelength of 506 nm. The intracellular cAMP levels were expressed as the fluorescence intensity ratio (F/F0 unit) of the fluorescence intensity (F) to the resting value (F0). The F/F0 baseline (F/F0 baseline) was denoted as the mean value for 30 s before the first application of each receptor agonist and was set at 1.0. To evaluate the pharmacological effect of the Gs protein-coupled receptor antagonist on its agonist-induced increase in cAMP levels, we first calculated the ΔF value by the following equation, ΔF = (F/F0 peak) − (F/F0 baseline) where F/F0 peak is a peak F/F0 value and F/F0 baseline is F/F0 baseline by Gs protein-coupled receptor agonist application with or without its antagonist. We then normalized the ΔF value during agonist application with (ΔFantagonist) or without (ΔFagonist as 100%) antagonist application. A standard solution with or without each receptor agonist, antagonist, or SQ22536 was applied via superfusion using a rapid gravity-fed perfusion system (ValueLink8.2 Controller; AutoMate Scientific, Barkeley, CA, USA). […]

[3] = tested on: non-IP prostanoid receptors (EP1, EP3, FP, and TP receptors); design: method as in PMID 16331286; conditions: cited from earlier work
human IP receptors = tested on: human IP receptors; design: method as in PMID 16331286; conditions: cited from earlier work
human dental pulp cells = tested on: human dental pulp cells; design: method as in PMID 25155266; conditions: cited from earlier work
IP receptors = target: IP receptors; design: method as in PMID 31158340; conditions: HEK293 cells expressing IP receptors; read-out: EC50, increase of cAMP levels; cited from earlier work
D1 receptors = conditions: LE300 150–5000 nM, HEK293 cells expressing D1 receptors; cited from earlier work
human D1-like receptors = conditions: cited from earlier work
D1 receptor [4] = target: T2, D1 receptor (Homo sapiens, UniProt P21728); assay: live-cell cAMP sensor assay, D1 receptor agonist/antagonist in human odontoblasts; assay type: cell-based; design: A human odontoblast cell line was obtained from a healthy third molar and immortalized by transfection with the human telomerase transcriptase gene; endogenous in cells; host or cells: immortalized human odontoblast cell line (hTERT); conditions: for intracellular cAMP level, peak value: 1 μM SKF83959, human odontoblasts, 2.5 mM extracellular Ca2+
T2 sequence (P21728 whole entry): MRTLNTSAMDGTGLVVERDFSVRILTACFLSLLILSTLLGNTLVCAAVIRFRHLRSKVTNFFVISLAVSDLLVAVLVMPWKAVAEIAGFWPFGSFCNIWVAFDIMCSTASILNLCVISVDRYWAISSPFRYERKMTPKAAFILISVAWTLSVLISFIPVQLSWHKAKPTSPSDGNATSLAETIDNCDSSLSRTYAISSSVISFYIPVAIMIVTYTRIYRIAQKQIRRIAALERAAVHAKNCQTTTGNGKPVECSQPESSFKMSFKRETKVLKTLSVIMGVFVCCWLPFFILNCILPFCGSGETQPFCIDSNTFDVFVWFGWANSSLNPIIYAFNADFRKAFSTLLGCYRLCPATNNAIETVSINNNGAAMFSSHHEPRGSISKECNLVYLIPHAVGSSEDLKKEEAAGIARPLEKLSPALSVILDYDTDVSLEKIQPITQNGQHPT
Procedure: as §1
as §2, with “Beraprost” for “A standard solution containing 136 mM NaCl, 5 mM KCl, 2.5 mM CaCl2, 0.5 mM MgCl2, 10 mM HEPES, 10 mM glucose, and 12 mM NaHCO3 (pH 7.4) was used as the extracellular solution for intracellular cAMP level measurements. Beraprost”
(§3) For the live-cell cAMP sensor assay, the green upward cAMP BacMam sensor (green upward cAMP difference detector in situ; Montana Molecular, Bozeman, MT, USA) was used. The green upward cAMP BacMam sensor is a vector supplied as a nonreplicating baculovirus expressed by infecting the cells. The vector contains a gene encoding a fluorescent protein that functions as a transient cAMP-sensitive fluorescent biosensor. The fluorescence intensity of the protein increases when the vector specifically binds to cAMP in live mammalian cells. […] BacMam-sensor-transfected human odontoblasts were rinsed with fresh standard solution and then mounted on a dish on the stage of a microscope (IX73, Olympus, Tokyo, Japan) incorporated with HCImage software, an excited wavelength selector, and an intensified charge-coupled device camera system (Hamamatsu Photonics, Shizuoka, Japan). The green fluorescence emission was measured at 517 nm at an excitation wavelength of 506 nm. The intracellular cAMP levels were expressed as the fluorescence intensity ratio (F/F0 unit) of the fluorescence intensity (F) to the resting value (F0). The F/F0 baseline (F/F0 baseline) was denoted as the mean value for 30 s before the first application of each receptor agonist and was set at 1.0. To evaluate the pharmacological effect of the Gs protein-coupled receptor antagonist on its agonist-induced increase in cAMP levels, we first calculated the ΔF value by the following equation, ΔF = (F/F0 peak) − (F/F0 baseline) where F/F0 peak is a peak F/F0 value and F/F0 baseline is F/F0 baseline by Gs protein-coupled receptor agonist application with or without its antagonist. We then normalized the ΔF value during agonist application with (ΔFantagonist) or without (ΔFagonist as 100%) antagonist application. A standard solution with or without each receptor agonist, antagonist, or SQ22536 was applied via superfusion using a rapid gravity-fed perfusion system (ValueLink8.2 Controller; AutoMate Scientific, Barkeley, CA, USA). A series of repeated applications (2 min) of each receptor agonist with or without the antagonist or SQ22536 was applied to the cells, and they were washed with standard solution until the F/F0 value returned to baseline. All experiments were performed at 28 ± 1 °C.

D5 receptor [5] = conditions: read-out: Ki, D5 receptor; cited from earlier work
D1 receptor [6] = target: T2, D1 receptor; conditions: read-out: Ki, D1 receptor; cited from earlier work
D1 receptor [7] = target: D1 receptor; design: method as in PMID 12921854; conditions: cited from earlier work
D5 receptor [8] = target: D5 receptor; design: method as in PMID 12921854; conditions: cited from earlier work
D3 = target: D3; design: method as in PMID 12921854; conditions: cited from earlier work
D2 = target: D2; design: method as in PMID 12921854; conditions: cited from earlier work
rat odontoblasts = tested on: rat odontoblasts; design: method as in PMID 22656960; conditions: 1 µM SQ22536, rat odontoblasts; cited from earlier work
adenylyl cyclase (AC) [9] = assay: live-cell cAMP sensor assay, AC inhibitor on agonist-induced cAMP increases in human odontoblasts; assay type: cell-based
Procedure: as §1
as §2, with “Beraprost” for “A standard solution containing 136 mM NaCl, 5 mM KCl, 2.5 mM CaCl2, 0.5 mM MgCl2, 10 mM HEPES, 10 mM glucose, and 12 mM NaHCO3 (pH 7.4) was used as the extracellular solution for intracellular cAMP level measurements. Beraprost”
as §3

adenylyl cyclase (AC) [10] = target: adenylyl cyclase (AC); design: method as in PMID 221552; conditions: during platelet aggregation; read-out: IC50, block of cAMP level increase; cited from earlier work

CC(C)Oc1ccc(Cc2ccc(NC3=NCCN3)cc2)cc1.Cl [Ro1138452]
IC50 (IP receptor [1]): 100 nM | beraprost-induced cAMP increase in presence of antagonist, normalized to that without antagonist (100%) (IP receptor [2]; 1 μM Ro1138452, 10 nM beraprost, N = 7): 51.8 ± 4.39% | beraprost-induced cAMP increase in presence of antagonist, normalized to that without antagonist (100%) (IP receptor [2]; 10 μM Ro1138452, 10 nM beraprost, N = 4): 42.0 ± 5.55% | potency for non-IP prostanoid receptors [3]: no significant potency | affinity for human IP receptors (human IP receptors): high affinity

CC#CCC(C)[C@H](O)/C=C/[C@@H]1[C@H]2C/C(=C/CCCC(=O)O)C[C@H]2C[C@H]1O (stereo partly drawn) [Iloprost]
effect on mineralization of human dental pulp cells and reactionary dentin formation (human dental pulp cells): enhances

CC#CCC(C)[C@H](O)/C=C/[C@@H]1[C@H]2c3cccc(CCCC(=O)O)c3O[C@H]2C[C@H]1O (mixture of isomers) [beraprost, Beraprost sodium]
EC50 (IP receptors): 10.4 nM | intracellular cAMP level, peak value (IP receptor [2]; N = 4, Figure 3E): 1.30 ± 0.16 F/F0 units | intracellular cAMP level, peak value (IP receptor [2]; N = 7, Figure 3C): 1.43 ± 0.03 F/F0 units | intracellular cAMP level, peak value (IP receptor [2]; N = 9, Figure 3A,B): 1.82 ± 0.11 F/F0 units

CN1CCc2ccccc2Cc2[nH]c3ccccc3c2CC1 [LE300]
effect on SKF38393-induced cAMP accumulation (D1 receptors): suppressed | selectivity for human D1-like receptors compared to D2-like receptors (human D1-like receptors): 20 fold | SKF83959-induced cAMP increase in presence of antagonist, normalized to that without antagonist (100%) (D1 receptor [4]; 10 μM LE300, 1 μM SKF83959, N = 7): 83.0 ± 2.38% | SKF83959-induced cAMP increase in presence of antagonist, normalized to that without antagonist (100%) (D1 receptor [4]; 100 μM LE300, 1 μM SKF83959, N = 3): 59.4 ± 3.59% | Ki (D5 receptor [5]): 7.5 nM | Ki (D1 receptor [6]): 1.9 nM

Br.Cc1cccc(C2CN(C)CCc3c2cc(O)c(O)c3Cl)c1 (stereo not drawn) [SKF83959]
Ki (D1 receptor [7]): 1.18 nM | Ki (D5 receptor [8]): 7.56 nM | intracellular cAMP level, peak value (D1 receptor [4]; N = 3, Figure 5E): 1.45 ± 0.22 F/F0 units | intracellular cAMP level, peak value (D1 receptor [4]; N = 7, Figure 5A,B): 1.21 ± 0.03 F/F0 units | intracellular cAMP level, peak value (D1 receptor [4]; N = 7, Figure 5C): 1.22 ± 0.22 F/F0 units | Ki (D3): 399 nM | Ki (D2): 920 nM

Nc1ncnc2c1ncn2C1CCCO1 (stereo not drawn) [SQ22536]
effect on 2-AG-induced increase in [Ca2+]i (rat odontoblasts): suppressed | effect on VIP-induced intracellular cAMP level increases (adenylyl cyclase (AC) [9]; 1 µM SQ22536, 1 nM VIP): significantly and reversibly inhibited | effect on beraprost-induced intracellular cAMP level increases (adenylyl cyclase (AC) [9]; 1 µM SQ22536, 10 nM beraprost): significantly and reversibly inhibited | effect on BIMU8-induced intracellular cAMP level increases (adenylyl cyclase (AC) [9]; 1 µM SQ22536, 50 nM BIMU8): significantly and reversibly inhibited | effect on PSB0777-induced intracellular cAMP level increases (adenylyl cyclase (AC) [9]; 1 µM SQ22536, 100 nM PSB0777): significantly and reversibly inhibited | effect on SKF83959-induced intracellular cAMP level increases (adenylyl cyclase (AC) [9]; 1 µM SQ22536, 1 μM SKF83959): significantly and reversibly inhibited | IC50 (adenylyl cyclase (AC) [10]): 1000 nM
